Data from PubChem BioAssay AID248 (DTP/NCI, 2004).
Several values for one entry are separate records, joined by “and”; a condition that tells them apart may be missing. Identical values can stand only once. Toxic doses and inconclusive results are not listed.

Tested on: L1210 leukemia ip in BDF1 mice, survival T/C
Assay: NCI In Vivo Anticancer Drug Screen. Data for tumor model L1210 Leukemia (intraperitoneal) in B6D2F1 (BDF1) mice
Settings: higher = longer survival
Summary of the method: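 Read-out is survival time, reported as the treated-group measurement over the vehicle-control measurement.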

[1] = endpoint: mean survival time, dose: 50.0 mg/kg/injection, schedule: Q04DX003 (ip), vehicle: Klucel (hydroxypropylcellulose) (HPC)
[2] = endpoint: mean survival time, dose: 100.0 mg/kg/injection, schedule: Q01DX009 (ip), vehicle: saline
[3] = endpoint: mean survival time, dose: 100.0 mg/kg/injection, schedule: Q04DX003 (ip), vehicle: Klucel (hydroxypropylcellulose) (HPC)
[4] = endpoint: mean survival time, dose: 200.0 mg/kg/injection, schedule: Q01DX009 (ip), vehicle: saline
[5] = endpoint: mean survival time, dose: 100.0 mg/kg/injection, schedule: Q01DX001 (ip), vehicle: saline
[6] = endpoint: mean survival time, dose: 100.0 mg/kg/injection, schedule: Q01DX001 (ip), vehicle: saline with Tween-80
[7] = endpoint: mean survival time, dose: 200.0 mg/kg/injection, schedule: Q01DX001 (ip), vehicle: saline with Tween-80
[8] = endpoint: mean survival time, dose: 400.0 mg/kg/injection, schedule: Q01DX001 (ip), vehicle: saline with Tween-80
[9] = endpoint: mean survival time, dose: 100.0 mg/kg/injection, schedule: Q01DX009 (ip), vehicle: saline with Tween-80
[10] = endpoint: mean survival time, dose: 200.0 mg/kg/injection, schedule: Q01DX009 (ip), vehicle: saline with Tween-80
[11] = endpoint: mean survival time, dose: 400.0 mg/kg/injection, schedule: Q01DX009 (ip), vehicle: saline with Tween-80
[12] = endpoint: mean survival time, dose: 100.0 mg/kg/injection, schedule: Q04DX002 (ip), vehicle: saline with Tween-80
[13] = endpoint: mean survival time, dose: 200.0 mg/kg/injection, schedule: Q04DX002 (ip), vehicle: saline with Tween-80
[14] = endpoint: mean survival time, dose: 400.0 mg/kg/injection, schedule: Q04DX002 (ip), vehicle: saline with Tween-80

SMILES: CN(C)/N=C/C=C/c1ccccc1
- T/C (endpoint: mean survival time, dose: 25.0 mg/kg/injection, schedule: Q01DX009 (ip), vehicle: Klucel (hydroxypropylcellulose) (HPC)): 98 % of control
- T/C (endpoint: mean survival time, dose: 50.0 mg/kg/injection, schedule: Q01DX009 (ip), vehicle: Klucel (hydroxypropylcellulose) (HPC)): 102 % of control
- T/C [1]: 100 % of control
- T/C (endpoint: mean survival time, dose: 100.0 mg/kg/injection, schedule: Q01DX009 (ip), vehicle: Klucel (hydroxypropylcellulose) (HPC)): 88 % of control
- T/C [2]: 105 % of control
- T/C [3]: 99 % of control
- T/C (endpoint: mean survival time, dose: 100.0 mg/kg/injection, schedule: Q04DX003 (ip), vehicle: saline): 98 % of control
- T/C [4]: 100 % of control
- T/C (endpoint: mean survival time, dose: 200.0 mg/kg/injection, schedule: Q04DX003 (ip), vehicle: Klucel (hydroxypropylcellulose) (HPC)): 97 % of control
- T/C (endpoint: mean survival time, dose: 200.0 mg/kg/injection, schedule: Q04DX003 (ip), vehicle: saline): 97 % of control
- T/C (endpoint: mean survival time, dose: 400.0 mg/kg/injection, schedule: Q04DX003 (ip), vehicle: saline): 102 % of control

SMILES: O=C(C#CC(=O)c1ccccc1)c1ccccc1
- T/C (endpoint: mean survival time, dose: 20.0 mg/kg/injection, schedule: Q04DX003 (ip), vehicle: gum acacia): 95 % of control
- T/C (endpoint: mean survival time, dose: 40.0 mg/kg/injection, schedule: Q04DX003 (ip), vehicle: gum acacia): 101 % of control
- T/C (endpoint: mean survival time, dose: 80.0 mg/kg/injection, schedule: Q04DX003 (ip), vehicle: gum acacia): 100 % of control

SMILES: CCC1C(=O)OC2(CO)C(=O)N(C)CCC12 (stereo not given)
- T/C (endpoint: mean survival time, dose: 15.6 mg/kg/injection, schedule: Q01DX001 (ip), vehicle: saline): 103 % of control
- T/C (endpoint: mean survival time, dose: 31.3 mg/kg/injection, schedule: Q01DX001 (ip), vehicle: saline): 103 % of control
- T/C (endpoint: mean survival time, dose: 62.5 mg/kg/injection, schedule: Q01DX001 (ip), vehicle: saline): 91 % of control
- T/C (endpoint: mean survival time, dose: 125.0 mg/kg/injection, schedule: Q01DX001 (ip), vehicle: saline): 94 % of control

SMILES: O=c1[nH]c(Cc2ccccc2)c([N+](=O)[O-])c(=O)[nH]1
- T/C (endpoint: mean survival time, dose: 50.0 mg/kg/injection, schedule: Q01DX001 (ip), vehicle: Klucel (hydroxypropylcellulose) (HPC)): 94 % of control
- T/C (endpoint: mean survival time, dose: 100.0 mg/kg/injection, schedule: Q01DX001 (ip), vehicle: Klucel (hydroxypropylcellulose) (HPC)): 103 % of control
- T/C (endpoint: mean survival time, dose: 200.0 mg/kg/injection, schedule: Q01DX001 (ip), vehicle: Klucel (hydroxypropylcellulose) (HPC)): 97 % of control

SMILES: N=C(N)c1ccc(N=NNc2ccc(C(=N)N)cc2)cc1 (tested in a mixture with another compound)
- T/C [5]: 93 % of control
- T/C (endpoint: mean survival time, dose: 200.0 mg/kg/injection, schedule: Q01DX001 (ip), vehicle: saline): 98 % of control

SMILES: Nc1nc(N)c2cc(CNc3ccc(C(=O)NC(CC(=O)O)CC(=O)O)cc3)ccc2n1
- T/C (endpoint: mean survival time, dose: 6.25 mg/kg/injection, schedule: Q01DX009 (ip), vehicle: saline): 123 % of control
- T/C (endpoint: mean survival time, dose: 6.3 mg/kg/injection, schedule: Q01DX009 (ip), vehicle: carboxymethylcellulose (CMC)): 167 % of control
- T/C (endpoint: mean survival time, dose: 10.0 mg/kg/injection, schedule: Q01DX009 (ip), vehicle: other): 157 % of control
- T/C (endpoint: mean survival time, dose: 12.5 mg/kg/injection, schedule: Q01DX009 (ip), vehicle: carboxymethylcellulose (CMC)): 152 % of control
- T/C (endpoint: mean survival time, dose: 25.0 mg/kg/injection, schedule: Q01DX009 (ip), vehicle: carboxymethylcellulose (CMC)): 180 % of control
- T/C (endpoint: mean survival time, dose: 25.0 mg/kg/injection, schedule: Q01DX009 (ip), vehicle: other): 158 % of control
- T/C (endpoint: mean survival time, dose: 50.0 mg/kg/injection, schedule: Q01DX001 (ip), vehicle: saline): 109 % of control
- T/C (endpoint: mean survival time, dose: 50.0 mg/kg/injection, schedule: Q01DX009 (ip), vehicle: carboxymethylcellulose (CMC)): 117 % of control
- T/C (endpoint: mean survival time, dose: 50.0 mg/kg/injection, schedule: Q01DX009 (ip), vehicle: saline): 216 % of control
- T/C (endpoint: mean survival time, dose: 100.0 mg/kg/injection, schedule: Q01DX001 (ip), vehicle: other): 196 % of control
- T/C [5]: 114 % of control
- T/C (endpoint: mean survival time, dose: 100.0 mg/kg/injection, schedule: Q01DX009 (ip), vehicle: carboxymethylcellulose (CMC)): 105 % of control
- T/C (endpoint: mean survival time, dose: 100.0 mg/kg/injection, schedule: Q01DX009 (ip), vehicle: other): 101 % of control
- T/C [2]: 103 % of control
- T/C (endpoint: mean survival time, dose: 133.0 mg/kg/injection, schedule: Q01DX001 (ip), vehicle: other): 175 % of control
- T/C (endpoint: mean survival time, dose: 200.0 mg/kg/injection, schedule: Q01DX001 (ip), vehicle: other): 208 % of control
- T/C (endpoint: mean survival time, dose: 200.0 mg/kg/injection, schedule: Q01DX009 (ip), vehicle: carboxymethylcellulose (CMC)): 88 % of control
- T/C (endpoint: mean survival time, dose: 200.0 mg/kg/injection, schedule: Q01DX009 (ip), vehicle: other): 86 % of control
- T/C [4]: 97 % of control
- T/C (endpoint: mean survival time, dose: 300.0 mg/kg/injection, schedule: Q01DX001 (ip), vehicle: other): 166 % of control
- T/C (endpoint: mean survival time, dose: 300.0 mg/kg/injection, schedule: Q01DX001 (ip), vehicle: saline): 122 % of control
- T/C (endpoint: mean survival time, dose: 400.0 mg/kg/injection, schedule: Q01DX001 (ip), vehicle: other): 107 % of control
- T/C (endpoint: mean survival time, dose: 600.0 mg/kg/injection, schedule: Q01DX001 (ip), vehicle: saline): 152 % of control

SMILES: CCOC(=O)C/C(C)=N\NC(N)=O
- T/C (endpoint: mean survival time, dose: 100.0 mg/kg/injection, schedule: Q04DX002 (ip), vehicle: Klucel (hydroxypropylcellulose) (HPC)): 104 % of control
- T/C (endpoint: mean survival time, dose: 200.0 mg/kg/injection, schedule: Q04DX002 (ip), vehicle: Klucel (hydroxypropylcellulose) (HPC)): 101 % of control
- T/C (endpoint: mean survival time, dose: 400.0 mg/kg/injection, schedule: Q04DX002 (ip), vehicle: Klucel (hydroxypropylcellulose) (HPC)): 97 % of control

SMILES: NC(=O)n1ccc(CC(O)(C(F)(F)F)C(F)(F)F)n1
- T/C [6]: 96 % of control
- T/C [7]: 96 % of control
- T/C [8]: 96 % of control

SMILES: O=C(CCC(=O)c1cccc([N+](=O)[O-])c1)NNc1ccc([N+](=O)[O-])cc1[N+](=O)[O-]
- T/C [9]: 95 % of control
- T/C [10]: 105 % of control
- T/C [11]: 92 % of control

SMILES: Cc1ccc(/C=C2\NC(=O)NC2=O)cc1
- T/C (endpoint: mean survival time, dose: 25.0 mg/kg/injection, schedule: Q01DX009 (ip), vehicle: water): 94 % of control
- T/C (endpoint: mean survival time, dose: 50.0 mg/kg/injection, schedule: Q01DX009 (ip), vehicle: water): 93 % of control
- T/C (endpoint: mean survival time, dose: 100.0 mg/kg/injection, schedule: Q01DX009 (ip), vehicle: water): 100 % of control
- T/C (endpoint: mean survival time, dose: 200.0 mg/kg/injection, schedule: Q01DX009 (ip), vehicle: water): 94 % of control
- T/C (endpoint: mean survival time, dose: 400.0 mg/kg/injection, schedule: Q01DX009 (ip), vehicle: water): 101 % of control

SMILES: CCCCOP(=O)(Nc1ccc([N+](=O)[O-])cc1)OCCCC
- T/C [12]: 101 % of control
- T/C [13]: 94 % of control
- T/C [14]: 90 % of control

SMILES: COc1ccccc1NC(=O)Nc1ccc(S(N)(=O)=O)cc1
- T/C [6]: 97 % of control
- T/C [9]: 101 % of control and 106 % of control
- T/C [12]: 98 % of control and 103 % of control
- T/C (endpoint: mean survival time, dose: 100.0 mg/kg/injection, schedule: Q04DX003 (ip), vehicle: saline with Tween-80): 94 % of control
- T/C [7]: 111 % of control
- T/C [10]: 98 % of control and 116 % of control
- T/C [13]: 104 % of control
- T/C (endpoint: mean survival time, dose: 200.0 mg/kg/injection, schedule: Q04DX003 (ip), vehicle: saline with Tween-80): 90 % of control
- T/C [8]: 97 % of control
- T/C [11]: 97 % of control and 98 % of control
- T/C [14]: 95 % of control
- T/C (endpoint: mean survival time, dose: 400.0 mg/kg/injection, schedule: Q04DX003 (ip), vehicle: saline with Tween-80): 100 % of control

SMILES: C[C@]12CC[C@H](O)C[C@H]1CC[C@@H]1[C@@H]2CC[C@]2(C)[C@@H](C3=CC(=O)OC3)CC[C@]12O
- T/C (endpoint: mean survival time, dose: 50.0 mg/kg/injection, schedule: Q01DX001 (ip), vehicle: carboxymethylcellulose (CMC)): 101 % of control
- T/C (endpoint: median survival time, dose: 2.0 mg/kg/injection, schedule: Q01DX005 (ip), vehicle: water): 98 % of control
- T/C (endpoint: median survival time, dose: 4.0 mg/kg/injection, schedule: Q01DX005 (ip), vehicle: water): 98 % of control
- T/C (endpoint: median survival time, dose: 8.0 mg/kg/injection, schedule: Q01DX005 (ip), vehicle: water): 103 % of control

SMILES: CCCCCn1c(Cl)c(C(=O)O)c2ccccc21
- T/C (endpoint: mean survival time, dose: 25.0 mg/kg/injection, schedule: Q04DX003 (ip), vehicle: Klucel (hydroxypropylcellulose) (HPC)): 109 % of control
- T/C [1]: 97 % of control
- T/C [3]: 102 % of control

SMILES: O=C(O)COc1cc(Cl)cc(Cl)c1
- T/C (endpoint: mean survival time, dose: 50.0 mg/kg/injection, schedule: Q04DX002 (ip), vehicle: other): 91 % of control
- T/C (endpoint: mean survival time, dose: 100.0 mg/kg/injection, schedule: Q04DX002 (ip), vehicle: other): 94 % of control
- T/C (endpoint: mean survival time, dose: 200.0 mg/kg/injection, schedule: Q04DX002 (ip), vehicle: other): 108 % of control
